Here are results for two compounds from US20240103005A1, “N-ACRYLOYLINDOLES AND METHODS OF USE” (The University of Hong Kong, priority 2022, published 2024).

The test system of data set [1] is HepG2 cells. Briefly: Confocal fluorescence imaging of HepG2 cells labeled with probe for different time intervals. The data set is classed as cell-based. To be noted: 10 μM; for cellular fluorescence intensity: 15, 30 and 60 min. How it is done: HepG2 Cells Labeled by NAIA-5 or IAA with Different Time Intervals for Imaging Experiments
HepG2 cells were plated on a 8-well Nunc Lab-Tek chambered slide system (ThermoFisher Scientific; 177402) and allowed to grow in complete medium at 37° C. with 5% CO2 to ca. 70% confluency. The cells were incubated with NAIA-5 and IAA (10 μM) respectively in complete medium for the indicated time interval, washed with PBS and then fixed by 4% paraformaldehyde in PBS at room temperature for 15 min. After washing with PBS, the fixed cells were permeabilized by PBS with 0.5 vol % Triton X-100 at room temperature for 30 min. The cells were then washed and incubated with a master mix solution containing CuSO4, THTPA, azide-fluor 545 and sodium ascorbate at final concentrations of 100, 500, 20 and 5000 μM respectively. After incubation in dark at room temperature for 1 h, the cells were washed with PBS and stained by Hoechst 33342 in PBS (final concentration=8.2 μM) at room temperature for 15 min. The cells were washed thrice with PBS and then imaged by confocal fluorescence microscopy. Hoechst 33342 was excited with a 405 nm diode laser, and emission was collected on a META detector between 371 and 507 nm. Fluor 545 was excited by a 561 nm diode laser and emission was collected on a META detector between 576 and 683 nm. Image analysis was performed by use of ImageJ. A region of interest (ROI) was created around individual cell, and cellular fluorescence intensity was measured. The reported average cellular fluorescence intensity was determined by averaging the measured intensity from 30 different cells from 3 different biological replicates/group. Statistical analyses were performed with a two-tailed Student's t-test (MS Excel).
Confocal fluorescence microscopy imaging was performed with a Zeiss laser scanning microscope 880 with a 20× water-immersion objective lens using ZEN 2.3 (Black Version) software (Carl Zeiss) with 3× magnification zoom-in. Hoechst 33342 was excited with a 405 nm diode laser, and emission was collected on a META detector between 371 and 507 nm. Fluor 545 was excited by a 561 nm diode laser and emission was collected on a META detector between 576 and 683 nm. Image analysis was performed by use of ImageJ. A region of interest (ROI) was created around individual cell, and cellular fluorescence intensity was measured. The reported average cellular fluorescence intensity was determined by averaging the measured intensity from 30 different cells from 3 different biological replicates/group. Statistical analyses were performed with a two-tailed Student's t-test (MS Excel).
To examine the underlying mechanism of better cysteine labeling in live cells by NAIA, we conducted confocal fluorescence imaging experiments on HepG2 cells treated with NAIA-5 and IAA respectively (both at 10 μM). After treatment for the indicated time intervals, the cells were washed with PBS, fixed by 4% paraformaldehyde in PBS and reacted with azide-fluor 545 through CuAAC. The stained cells were then washed with PBS and imaged by confocal fluorescence microscopy. […] In view of the fast and better labeling of reactive cysteines in live cells, we anticipate that NAIAs can be good candidates for capturing cysteines with dynamic changes in reactivity/modifications in cells. The ability of NAIAs to work nicely with confocal fluorescence microscopic imaging also illustrates their potential application as imaging probes for cellular cysteine reactivity. […]

Data set [2] deals with HepG2 cells. Briefly: MTT cell viability assay. Type of data set: cell-based. The procedure:
MTT Cell Viability Assay of Cells Treated with NAIA-5
HepG2 cells were plated on 96-well plates (Corning, 3904) at 30,000 cells per well in 100 μL of complete medium and allowed to grow overnight. The cells were then incubated with DMSO solvent control or NAIA-5 at indicated concentrations for 1 h. The treated cells were then added with 10 μL of MTT solution in PBS (5 mg/mL) and incubated in dark at 37° C. with 5% CO2 for 4 h. After that, 100 μL of SDS solution in PBS ([…] with 0.01M HCl) was added for cell lysis. The plates were kept in dark overnight and cell viability were assayed by the absorption at 580 nm on Perkin Elmer Victor 3 ([…]).

Data set [3] relates to HepG2 cells. Briefly: MS-based ABPP, live-cell cysteine labeling of HepG2 cells. Also noted: species or system human. To be noted: 10 μM, 1 h. How it is done: MS-Based ABPP Experiments to Identify Liganded Cysteines in HepG2 Cells by Live-Cell Labeling Using NAIA-5 or IAA.
HepG2 cells were plated on 15 cm tissue culture plates and allowed to grow in complete medium at 37° C. with 5% CO2 to ca. 80% confluency. The cells were then treated with NAIA-5 and IAA (10 μM), respectively, in complete medium and incubated at 37° C. with 5% CO2 for 1 h. The cells were washed, scrapped in PBS and lysed by sonication. After BCA assay, the cell lysates were diluted to 2 mg/mL, and 2 mL of the lysates were used for n=1 sample preparation. The lysates were then subjected to CuAAC reaction with DTB-PEG-azide, acetone precipitation, enrichment by streptavidin beads, reduction by TCEP followed by cysteine carbamidomethylation and tryptic digestion according to the same procedure described for the sample preparation of HepG2 cell lysate experiment except no pairing of the NAIA-5- and IAA-labeled samples. The probe-modified peptides were then eluted by elution buffer solution (MeCN/H2O, 1:1, v/v; with 0.1% formic acid), dried, desalted by C18 Stage tips and sent for LC-MS/MS analysis using Aurora C18 UHPLC column (75 μm i.d.×25 cm length×1.6 μm particle size; IonOpticks, Australia) coupled to timsTOF Pro mass spectrometer (Bruker), with the same experimental settings as described for the experiment on HepG2 cell lysates. […]

For `C#CCCCCNC(=O)COc1ccc2c(ccn2C(=O)C=C)c1` [NAIA-5], in the data set with HepG2 cells [1], the “labeling of cytosolic and nuclear proteins (colocalization with Hoechst channel)” value is “good labeling of proteins in both cytosol and nucleus”; the cellular fluorescence intensity result was “Significantly higher fluorescence intensities were found in cells treated with NAIA-5 than IAA”. Moreover, the cellular permeability result in the data set on HepG2 cells [1] (inferred from live-cell imaging) is “good cellular permeability”. Also, in the data set on HepG2 cells [2] (10 μM for 1 h), the “cellular toxicity (in words)” value is recorded as “no significant cellular toxicity was found”. In addition, the IC50 in the data set with HepG2 cells [2] (MTT, 1 h incubation, read-out: IC50 (cytotoxicity)) is over 40 µM. In addition, the “cell viability (in words)” value with HepG2 cells [2] (treatment for 1 h) is “no significant changes in viability of HepG2 cells”. For the same compound, in the data set with HepG2 cells [3], the “number of labeled cysteines in live cells compared with IAA” value is given as “higher number of labeled cysteines than IAA”.

For `C#CCCCCNC(=O)CI` [IAA, N-Hex-5-ynyl-2-iodoacetamide, reference compound], in the data set on HepG2 cells [1], the “labeling of cytosolic and nuclear proteins (colocalization with Hoechst channel)” value is on record as “lower Manders' colocalization coefficient”; the cellular fluorescence intensity entry was “much weaker fluorescence at 15 min”.

A word on the IC50: it is the concentration needed to halve the response being measured.
